Columns and labels:
DU145 cells = assay: Tumor growth of subcutaneous DU145 tumor in nude mouse, compound in drinking water; assay type: in vivo, nude mouse (Balb/c)
Description: To a male 4 week-old nude mouse (Balb/c), 5×10^6 DU145 cells were subcutaneously injected on a back. After 10 days, when tumor having a diameter of 5 mm was formed (week 0), Candesartan cilexetil (Compound C) was mixed into drinking water so that Compound C could be orally taken at a dosage of 5 mg/kg day or 2.5 mg/kg day (each group: n=5). As a control group, a group (n=5) receiving no Compound C was bred at the same time. Initiation of the oral administration was regarded as week 0, each group was bred for 4 weeks, and a diameter of tumor was measured every week.

[1] = test system: microvessels in DU145 tumor; assay: Number of microvessels in DU145 tumor of nude mouse, anti-CD31 staining; assay type: in vivo, nude mouse (Balb/c); conditions: 5 mg/kg/day orally, 4 weeks, magnification 400; control 72.5±9.7, P<0.02
Description: To a male 4 week old nude mouse (Balb/c), 5×10^6 DU145 cells were subcutaneously injected on a back. After 10 days, when tumor having a diameter of 5 mm was formed (0 week), Candesartan cilexetil (Compound C) was mixed into drinking water (each group: n=3) so that Compound C could be orally taken the an amount of 5 mg/kg/day. As a control group, a group (n=3) receiving no Compound C was bred at the same time. Initiation of the oral administration was regarded as week 0, each group was bred for 4 weeks, and thereafter, tumor was isolated, stained with an anti-CD31 antibody as described hereinafter, and the number of microvessels in tumor was examined. Under a microscope (magnification 400), four places rich in the number of microvessels were selected from a tumor solid tissue part, and the number was counted. The results are shown in [FIG. 7]. Average 72.5±9.7 vessels were recognized in one field in case of the control group, and average 37.5±3.3 vessels were recognized in one field in case of the Compound C-administered group and, thus, a significant difference was recognized between both groups (P<0.02).
Vessels in a tumor-transplanted tissue of a nude mouse were immunologically stained using an anti-mouse CD31 antibody, and the number of vessels and vascularization state were studied. Procedures were as follows: […]

[2] = test system: DU-145 (androgen receptor negative cell line derived from metastasis of prostate cancer); assay: Cell number of DU-145 prostate cancer cells 5 days after addition of EGF and compound; assay type: cell-based; conditions: DU-145, serum free, 10^-6 M compound plus EGF
Description: Prostate cancer cells, DU-145 (androgen receptor negative cell line derived from metastasis of prostate cancer) were seeded on a 6-well dish (1×10^5 cells/well), and cultured for 24 hours under serum free conditions. Then, EGF and 2-ethoxy-1-[[2′-(1H-tetrazol-5-yl)biphenyl-4-yl]methyl]benzimidazole-7-carboxylic acid (Compound B) were added, and 5 days after, the number of cells was counted with a hematocytometer [FIG. 1].

[3] = test system: LNCaP (androgen receptor positive cell line derived from metastasis of prostate cancer); assay: Cell number of LNCaP prostate cancer cells 5 days after addition of EGF and compound; assay type: cell-based; conditions: serum free, 10^-6 M compound plus EGF
Description: Prostate cancer cells, LNCaP (androgen receptor positive cell line derived from metastasis of prostate cancer) were seeded on a dish (1×10^5 cells/dish), and cultured for 24 hours under serum free conditions. Then, EGF and Compound B were added, and 5 days after, the number of cells was counted [FIG. 2].

MAPK [4] = assay: Phosphorylation of MAPK in LNCaP cells stimulated with EGF; assay type: cell-based; conditions: EGF 1 ng/ml, compound 10^-6 M added 30 minutes before
Description: (1) LNCaP cells (10^7 cells) were cultured in a serum-free culture medium (F-12+1 mg/ml BSA) for 24 hours, each concentration of EGF and Compound B (10^−6 M) were added, and phosphorylation of MAPK was investigated.

STAT3 [5] = assay: Phosphorylation after EGF stimulation of LNCaP cells, each concentration of compound; assay type: cell-based; conditions: EGF 1 ng/ml, compound 10^-6 M, 5x10^-6 M, 10x10^-6 M
MAPK [6] = assay: Phosphorylation of MAPK in LNCaP cells stimulated with IL-6; assay type: cell-based; conditions: IL-6 25 ng/ml, compound 10^-6 M, 5x10^-6 M, 10x10^-6 M
Description: (3) LNCaP cells (10^7 cells) were cultured in a serum-free culture medium (F-12+1 mg/ml BSA) for 24 hours, IL-6: 25 ng/ml and each concentration of Compound B (10^−6 M, 5×10^−6 M, 10×10^−6 M) were added, and phosphorylation of MAPK was investigated.

[7] = test system: tyrosine phosphorylation of cellular proteins in LNCaP cells; assay: Tyrosine phosphorylation of cellular proteins in LNCaP cells, Western blotting with anti-phospho-tyrosine antibody; assay type: cell-based; conditions: 24 h no serum, angiotensin II 1x10^-6 M or EGF 1 ng/ml, 5 minutes
Description: It is already known that, when growth stimulation such as EGF is applied to cells, phosphorylation of cellular proteins is induced by activation of signal transduction pathway. Then, in order to make clear the effect of angiotensin II on prostate cancer, prostate cancer LNCaP cells were cultured for 24 hours with no serum stimulation, and then, the culture was stimulated with angiotensin II (1×10^−6 M) or EGF (1 ng/ml) which was already known to have growth promoting effect, and 5 minutes after, cells were collected. The whole cell lysate separated by SDS-PAGE, transferred onto a PVDF membrane, and then tyrosine phosphorylation of an cellular protein was observed by Western blotting method using an anti-phospho-tyrosine antibody (Upstate, 10 Old Barn Road Lake Placid, N.Y. 12946 U.S.A.) [FIG. 3]. […] That is, it is considered that stimulation with angiotensin II has the same or similar effect as that of stimulation with EGF on prostate cancer cells.

MAP kinase = assay: Activated MAP kinase in LNCaP cells, Western blotting with anti-phospho-MAP kinase antibody; assay type: cell-based; conditions: 24 h no serum, angiotensin II 1x10^-6 M or EGF 1 ng/ml
Description: In order to make clear the effect of angiotensin II on MAP kinase which is one of cellular proteins controlling cell growth, prostate cancer LNCaP cells were cultured for 24 hours with no serum stimulation, and then, stimulated with angiotensin II (1×10^−6 M) or EGF (1 ng/ml) already known to have growth promoting effect, and cells were collected at an appropriate time. The whole cell lysate was separated by SDS-PAGE, and then, transferred onto a PVDF membrane, and a total amount of cellular activated MAP kinase and MAP kinase was measured by Western blotting method using an anti-phospho-MAP kinase antibody which recognizes only activated MAP kinase (Cell Signaling Technology, 166B Cumming Center Beverly, Mass. 01915 U.S.A.: in FIG. 4, WB: PMAPK), and a MAP kinase antibody which recognizes all endogenous MAP kinases (Cell Signaling Technology, 166B Cumming Center Beverly, Mass. 01915 U.S.A.: in FIG. 4, WB: MAPK) [FIG. 4]. […] That is, it has been apparent that MAP kinase controlling cell growth is activated by stimulation of angiotensin II.

STAT3 [8] = assay: Activated STAT3 in LNCaP cells, Western blotting with anti-phospho-STAT3 (Tyr705) antibody; assay type: cell-based; conditions: 24 h no serum, angiotensin II 1x10^-6 M or EGF 1 ng/ml
Description: In order to make clear the effect of angiotensin II on an cellular protein STAT3 which is one of signal transducing molecules of a growth factor and a cytokine and is said to be involved in cell growth, prostate cancer LNCaP cells were cultured for 24 hours with no serum stimulation, and then, stimulated with angiotensin II (1×10^−6 M) or EGF (1 ng/ml) already known to have growth promoting effect, and cells were collected at an appropriate time. The whole cell lysate was separated by SDS-PAGE, and then, transferred onto a PVDF membrane. Activated STAT3 and a total amount of STAT3 were confirmed by Western blotting method using an anti-phospho-STAT3 (Tyr705) antibody which recognizes only activated STAT3 (Cell Signaling Technology, 166B Cumming Center Beverly, Mass. 01915 U.S.A.: in FIG. 5, WB: PSTAT3), and a STAT3 antibody which recognizes all endogenous STAT3s (Cell Signaling Technology, 166B Cumming Center Beverly, Mass. 01915 U.S.A.: in FIG. 5, WB: STAT3) [FIG. 5]. […] That is, it has been apparent that STAT3 controlling cell growth is activated by stimulation with angiotensin II.

CCOc1nc2cccc(C(=O)OC(C)OC(=O)OC3CCCCC3)c2n1Cc1ccc(-c2ccccc2-c2nnn[nH]2)cc1 (centres unmarked) [Compound C, 1-(cyclohexyloxycarbonyloxy)ethyl 2-ethoxy-1-[[2′-(1H-tetrazol-5-yl)biphenyl-4-yl]methyl]benzimidazole-7-carboxylate]
growth inhibition as compared with the control group (DU145 cells; 5 mg/kg/day orally, in and after week 2): significant difference of P<0.01 | tumor growth (diameter of tumor) (DU145 cells; 5 or 2.5 mg/kg/day orally in drinking water, from week 2, 4 weeks): inhibition of tumor growth was observed | number of microvessels in tumor, average vessels in one field [1]: 37.5±3.3 vessels

CCOc1nc2cccc(C(=O)O)c2n1Cc1ccc(-c2ccccc2-c2nnn[nH]2)cc1 [Compound B, 2-ethoxy-1-[[2′-(1H-tetrazol-5-yl)biphenyl-4-yl]methyl]benzimidazole-7-carboxylic acid]
reduction of the number of cells as compared with stimulation with EGF alone [2]: about 12% | reduction of the number of cells as compared with stimulation with EGF alone [3]: about 22% | phosphorylation of MAPK by EGF stimulation (MAPK [4]): phosphorylation was inhibited | phosphorylation of STAT3 by EGF stimulation (STAT3 [5]): inhibited in a Compound B dose dependant manner | phosphorylation of MAPK by IL-6 (MAPK [6]): inhibited in a Compound B dose dependent manner

EGF: growth factor already known to have growth promoting effect
tyrosine phosphorylation of cellular proteins [7]: tyrosine phosphorylation was induced | activated MAP kinase (WB: PMAPK) (MAP kinase): activated MAP kinase was increased | activated STAT3 (WB: PSTAT3) (STAT3 [8]): activated STAT3 was increased

angiotensin II: stimulant of LNCaP cells acting on the angiotensin II receptor AT1 (DRVYIHPF; Angiotensin-2; UniProt P01019 25-32, looked up)
tyrosine phosphorylation of cellular proteins [7]: tyrosine phosphorylation of the same protein by stimulation with angiotensin II was also observed | activated MAP kinase (WB: PMAPK) (MAP kinase): activated MAP kinase was increased | activated STAT3 (WB: PSTAT3) (STAT3 [8]): activated STAT3 was increased
